From article PMC10702189, “Tetrazine Glycoconjugate for Pretargeted Positron Emission Tomography Imaging of trans-Cyclooctene-Functionalized Molecular Spherical Nucleic Acids” (ACS Omega, 2023)

Experiment: Stability in end product formulation by analytical radio-HPLC
Format: physicochemical
Conditions: for 6 h from EOS, end product formulation (PBS, ethanol ≤10%) at r.t.
Procedure: Chemical and radiochemical purity and stability of precursors and radiotracers were measured with analytical HPLC (Hitachi LaChrom Elite, Schaumburg, USA). Jupiter Proteo reversed-phase C18 column (4 μm, 250 mm × 4.6 mm) was used at a flow rate of 1 mL/min. HPLC eluents were A, 0.1% trifluoroacetic acid (TFA, v/v) in water; B, 0.1% TFA in acetonitrile. The gradient changed from 15% to 35% in 0–15 min. For radiolabeled MSNA quality control, SEC at a flow rate of 1 mL/min was used (Waters Protein-Pak 33SW (7.5 × 300 mm), eluent 0.1 M KH2PO4, pH 7.0).
The cyclotron produced [^18F]fluoride, dissolved in ^18O-enriched water (Rotem Industries Limited, Arava, Israel), was trapped in a Sep-Pak QMA Plus Light cartridge (Waters, preconditioned with 10 mL of 0.5 M K2CO3, 15 mL of water). [^18F]F^– was eluted from the cartridge with 2 mL of QMA-eluent solution (stock solution contains 237.5 mg of Kryptofix 2.2.2, 42.5 mg of potassium carbonate, 2 mL of Milli-Q water in 50 mL of acetonitrile). The reaction mixture was evaporated to dryness with Ar gas flow (70 mL/min for 10 min, and then 80 mL/min for 5–10 min more) under heating at 120 °C. […] The stability of [^18F]FDG-Tz was analyzed by analytical radio-HPLC up to 6 h after EOS in the end product formulation at r.t.

O=C(CCON=C[C@H]([18F])[C@@H](O)[C@H](O)[C@H](O)CO)NCc1ccc(-c2nncnn2)cc1 [[^18F]FDG-Tz]
Radiochemical purity retained (stability): > 98%
